What is called IC50 is the midpoint of a concentration-inhibition curve. A high value points to a need for much substance.

Experimental findings from patent publication US8106053B2, “5-phenyl-3-pyridazinone derivative” (Kowa Company, Ltd., priority 2007, dated 2012) are described below.

Test [1] concerns C57BL/6 mice, bleomycin-induced pulmonary fibrosis. The test is described as follows: Bleomycin-induced pulmonary fibrosis model, amount of lung hydroxyproline. The format is in vivo. The note with it: 0.3 mg/kg orally once daily, three weeks after intratracheal bleomycin 6 mg/kg, relative to solvent-administration group. The source says:
It has been reported that bleomycin administration into the trachea leads to pulmonary fibrosis. Its pathological findings including the hypertrophy and fibrosis of the alveolar wall, increased inflammatory cells, the increased amount of hydroxyproline etc. are similar to clinical idiopathic pulmonary fibrosis, and it has been often used as an experimental model of pulmonary fibrosis (Biochem. Biophys. Res. Comm. 288, 747 (2001)). To C57BL/6 mice (6-week-old, female), bleomycin hydrochloride (Bleo: NIPPON KAYAKU CO., LTD) (6 mg/kg, 25 μl/animal) was injected into the bronchus together with 500 μl of compressed air. Three weeks after administration into the trachea, the amount of hydroxyproline in the lung was determined. 0.3 mg/kg of the test substance was suspended in 0.5% carboxymethyl cellulose sodium, and orally administered once daily. The effect of the compound of the present invention was expressed in the inhibition percentage relative to the increased amount of lung hydroxyproline of the solvent-administration group, and shown in Table 3.

For test [2], the system named is PAI-1 production in human airway epithelial cells (BEAS-2B). The test is described as follows: Activity of inhibiting PAI-1 production using airway epithelial cells (TGF-β stimulated, ELISA). The test is classed as cell-based. Conditions: BEAS-2B cells, 24 hours, PAI-1 in culture supernatant by ELISA. On the procedure:
The effect of a compound on PAI-1 production activity using airway epithelial cells was examined. This reflects PAI-1 concentration in the lung tissue related to fibrosis (lung).
The effect on the amount of PAI-1 produced using human airway epithelial cells (BEAS-2B) was examined. After 0.1 ml each of BEAS-2B cells prepared at 2×10^6 cells/ml was added to a collagen I-coated 96-well plate, preincubated for 24 hours, 0.1 ml of a medium containing […] TGF-β was added thereto and incubated for 24 hours, the amount of PAI-1 in the culture supernatant was determined using an ELISA kit. The test substance was dissolved in dimethyl sulfoxide (final concentration, 0.1% or less), and was prepared at 0.2, 1, 5 and 25 μM using a phosphate buffer, and added after preculturing. The activity of inhibiting PAI-1 production of the compound of the present invention was expressed in terms of the IC50 value and shown in Table 2.
Background: In an ELISA, binding on a coated surface is turned into a signal by an enzyme label.

As for “5-(3-(cyclopropylmethyl)-4-methoxyphenyl)-2-methylpyridazin-3-one [Compound No. 2]”, in test [1], the “Inhibition percentage relative to the increased amount of pulmonary hydroxyproline” value is 66%. The compound also showed an IC50 in test [2] of 16.8 µM. As for “5-(4-methoxy-3-(tetrahydrofuranyloxy)phenyl)-2-phenylpyridazin-3-one [Compound No. 9]”, in test [1], the “Inhibition percentage relative to the increased amount of pulmonary hydroxyproline” value came out at 117%. `COc1ccc(-c2cn[nH]c(=O)c2)cc1OC` [Compound No. 1, 5-(3,4-dimethoxyphenyl)pyridazin-3-one]: half-maximal inhibition in test [2] (Homo sapiens) (IC50) was put at 14.1 µM.

On to `COc1ccc(-c2cnn(C)c(=O)c2)cc1OC1CCCC1` [Compound No. 3, 5-(3-(cyclopentyloxy)-4-methoxyphenyl)-2-methylpyridazin-3-one], for which, in test [1], the “Inhibition percentage relative to the increased amount of pulmonary hydroxyproline” value is 68%. Moreover, the IC50 in test [2] (Homo sapiens) was 5.8 µM. In test [2] (Homo sapiens), `COc1ccc(-c2cn[nH]c(=O)c2)cc1OC1CCOC1` (centres unmarked) [Compound No. 4, 5-(4-methoxy-3-(3-tetrahydrofuranyloxy)phenyl)pyridazin-3-one] came in with an IC50 of 8.4 µM. `COc1ccc(-c2cnn(-c3ccccc3)c(=O)c2)cc1OC1CCCC1` [Compound No. 6, 5-(3-(cyclopentyloxy)-4-methoxyphenyl)-2-phenylpyridazin-3-one]: in test [1], the “Inhibition percentage relative to the increased amount of pulmonary hydroxyproline” value is 84%. The compound `COc1ccc(-c2cnn(C)c(=O)c2)cc1OC1CCOC1` (centres unmarked) [Compound No. 12, 5-(4-methoxy-3-(3-tetrahydrofuranyloxy)phenyl)-2-methylpyridazin-3-one] had an IC50 in test [2] (Homo sapiens) of 4 µM. The same measure, in the same setting: then `COc1ccc(-c2cnn(C)c(=O)c2)cc1O[C@H]1CCOC1` [Compound No. 16, (S)-5-(4-methoxy-3-(3-tetrahydrofuranyloxy)phenyl)-2-methylpyridazin-3-one], with 23.2 µM. Turning to `COc1ccc(-c2cnn(Cc3ccc4ccccc4n3)c(=O)c2)cc1OC1CCCC1` [Compound No. 19, 5-(3-(cyclopentyloxy)-4-methoxyphenyl)-2-(2-quinolylmethyl)pyridazin-3-one], the “Inhibition percentage relative to the increased amount of pulmonary hydroxyproline” value in test [1] is on record as 132%.
